Measurements published in patent US20060009403A1, “Dna demethylase antisense and chemotherapy combination” (Centre National De La Recherche Scientifique (CNRS), priority 2002, published 2006).

System: H1299 tumor grafts (human non-small cell lung tumors)
Test: Growth of H1299 tumor grafts in nude mice after intratumor electrotransfer of antisense plasmid and/or intramuscular bleomycin (Experiments 1 and 2)
Type: in vivo
Conditions: for Number of tumors cured (tumors no longer measurable): cured/total
Description: Two series of experiments were carried out in nude mice weighing 18 to 20 g. The mice were implanted on one side with H1299 tumor grafts (human non-small cell lung tumors) of approximately 20 mm^3. The tumors developed, to reach a volume of 20 to 150 mm^3. The mice were sorted as a function of the size of the tumors and were divided up into homogeneous batches reaching tumor volumes of 50 to 80 mm^3 (n=10 to 13). The mice were anesthetized with a mixture of ketamine and xylazine.
A series of tumors was subjected to no treatment.
Five electrotransfers of 50 μg of plasmid in 80 μl of 150 mM NaCl were carried out in the tumors on the days indicated by the arrows. The plasmid solution was injected longitudinally at the periphery of the tumor using a Hamilton syringe. The lateral faces of the tumors were coated with conducting gel and the tumors were placed between 2 flat stainless steel electrodes 0.4 to 0.7 cm apart. Twenty to 30 seconds after the injection, the plasmids were electrotransferred using a commercial (square) electrical pulse generator (Jouan Electropulser PS 15). Each tumor was subjected to 500 V/cm delivered in 8 pulses lasting 20 msec at a frequency of 1 Hertz.
Twenty-five μg of bleomycin/animal in 50 μl of 150 mM NaCl were injected bilaterally into the tibialis cranialis muscle and, 30 minutes later, each tumor was subjected to 1 electrotransfer as explained above.
(§1) Twenty-five μg of bleomycin/animal in 50 μl of 150 mM NaCl were injected bilaterally into the tibialis cranialis muscle and, 30 minutes later, 50 μg of antisense plasmid in 80 μl of 150 mM NaCl were injected and electrotransferred. Four other electrotransfers of 50 μg of antisense plasmid in 80 μl of 150 mM NaCl were subsequently carried out in the tumors on the days indicated by the arrows.
The tumor volumes were measured individually for each tumor using an electronic slide gauge with a digital display, according to the formula (length×width×thickness)/2.
The median of the tumor volumes was reported in the form of a graph, as a function of time.
Five electrotransfers of 80 μl of 150 mM NaCl were carried out in the tumors on the days indicated by the arrows.
as §1, with “Fifty” for “Twenty-five μg of bleomycin/animal in 50”, “later, an electrotransfer of” for “later,”, “was carried out.” for “were injected and electrotransferred.”
Twenty-five μg of bleomycin/animal in 50 μl of 150 mM NaCl were injected bilaterally into the tibialis cranialis muscle and, 30 minutes later, each tumor was injected with 80 μl of 150 mM NaCl and subjected to an electrotransfer. Four other electrotransfers of 80 μl of 150 mM NaCl were subsequently carried out in the tumors on the days indicated by the arrows.
as §1, with “50-μl” for “50 μl”, “in” for “into”, “later, an electrotransfer of” for “later,”, “was carried out.” for “were injected and electrotransferred.”

In the case of bleomycin, the “Delay in growth, treatment versus untreated” value (Experiment 1) is reported as 30 days, the “D1000, number of days required to reach a tumor volume of 1000 mm^3” value (Experiment 1 (Table 3)) is reported as “D44 days” and the “Day 1000 mm^3 (median), number of days to reach 1000 mm^3 of tumor volume” value (Experiment 1, H1299 tumors, 25 μg bleomycin i.m. and/or 5 electrotransfers of 50 μg plasmid) is reported as 44.40 days. For the same substance, the “Number of tumors cured (tumors no longer measurable)” value (Experiment 1) was 1/13, the “Delay in growth, treatment versus electro/NaCl” value (Experiment 2) was 17 days and the “D1000, number of days required to reach a tumor volume of 1000 mm^3” value (Experiment 2 (Table 3)) was “D38 days”. For the same substance, the “D 1000 mm^3 (median), number of days to reach 1000 mm^3 of tumor volume” value (Experiment 2, H1299 tumors, 25 μg bleomycin i.m. and/or 5 electrotransfers of 50 μg plasmid) was 38.00 days, the “Number of tumors cured (tumors no longer measurable)” value (Experiment 2) was 1/11 and the “Tumor (complete) cure rate” value (H1299 tumors, summary over Experiments 1 and 2) was 10%.
